In US6979686B1, “Substituted pyrazoles as p38 kinase inhibitors” (Pharmacia Corporation, priority 2001, dated 2005):

The compounds below were run against T1, human p38 kinase alpha (Homo sapiens, UniProt Q16539) (assay: p38 kinase in vitro assay, phosphorylation of biotinylated PHAS-I with 32P-ATP). Conditions: @ 1.0 uM.
T1 construct: GST (N, cleaved yes); made in house; host or cells: E. coli DH10B
T1 sequence (Q16539 whole entry): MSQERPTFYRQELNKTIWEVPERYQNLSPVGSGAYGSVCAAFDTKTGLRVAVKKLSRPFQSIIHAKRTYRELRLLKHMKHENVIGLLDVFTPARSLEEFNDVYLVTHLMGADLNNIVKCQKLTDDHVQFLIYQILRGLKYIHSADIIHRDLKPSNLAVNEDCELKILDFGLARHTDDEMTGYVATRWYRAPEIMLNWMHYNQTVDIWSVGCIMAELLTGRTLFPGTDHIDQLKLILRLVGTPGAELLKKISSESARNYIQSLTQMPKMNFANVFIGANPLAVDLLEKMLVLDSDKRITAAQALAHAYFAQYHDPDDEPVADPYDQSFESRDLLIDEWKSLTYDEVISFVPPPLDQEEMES
Type: biochemical
Procedure: The coding region of the human p38a cDNA was obtained by PCR-amplification from RNA isolated from the human monocyte cell line THP.1. […] Random primer, dNTP's and Superscript™ reagents were all purchased from Life-Technologies, Gaithersburg, Mass. The reaction was incubated at 42° C. for 1 hour. Amplification of p38 cDNA was performed by aliquoting 5 μl of the reverse transcriptase reaction into a 100 μl PCR reaction containing the following: 80 μl dH2O, 2 μl 50 mM DNTP's, 1 μl each of forward and reverse primers (50 pmol/μl), 10 μl of 10×buffer and 1 μl Expand™ polymerase (Boehringer Mannheim). The PCR primers incorporated BamHI sites onto the 5′ and 3′ end of the amplified fragment, and were purchased from Genosys. […] The PCR amplification was carried out in a DNA Thermal Cycler (Perkin Elmer) by repeating 30 cycles of 94° C. for 1 minute, 60° C. for 1 minute and 68° C. for 2 minutes. After amplification, excess primers and unincorporated dNTP's were removed from the amplified fragment with a Wizard™ PCR prep (Promega) and digested with BamHI (New England Biolabs). The BamHI digested fragment was ligated into BamHI digested PGEX 2T plasmid DNA (PharmaciaBiotech) using T-4 DNA ligase (New England Biolabs) as described by T. Maniatis, Molecular Cloning: A Laboratory Manual, 2nd ed. […] The ligation reaction was transformed into chemically competent E. coli DH10B cells purchased from Life-Technologies following the manufacturer's instructions. Plasmid DNA was isolated from the resulting bacterial colonies using a Promega Wizard™ miniprep kit.
Expression of Human p38a:
Overnight cultures were grown in-Luria Broth (LB) containing […] ampicillin. The next day, 500 ml of fresh LB was inoculated with 10 ml of overnight culture, and grown in a 2 liter flask at 37° C. with constant shaking until the culture reached an absorbance of 0.8 at 600 nm. Expression of the fusion protein was induced by addition of isopropyl b-D-thiogalactosidse (IPTG) to a final concentration of 0.05 mM. The cultures were shaken for three hours at room temperature, and the cells were harvested by centrifugation. The cell pellets were stored frozen until protein purification.
Purification of p38 Kinase-α:
All chemicals were from Sigma Chemical Co. unless noted. Twenty grams of E. coli cell pellet collected from five 1 L shake flask fermentations was resuspended in a volume of PBS (140 mM NaCl, 2.7 mM KCl, 10 mM Na2HPO4, 1.8 mM KH2PO4, pH 7.3) up to 200 ml. The cell suspension was adjusted to 5 mM DTT with 2 M DTT and then split equally into five 50 ml Falcon conical tubes. The cells were sonnicated (Ultrasonics model W375) with a 1 cm probe for 3×1 minutes (pulsed) on ice. Lysed cell material was removed by centrifugation (12,000×g, 15 minutes) and the clarified supernatant applied to glutathione-sepharose resin (Pharmacia).
Glutathione-sepharose Affinity Chromatography:
The resin was collected by centrifugation (600×g, 5 min) and washed with 2×150 ml PBS/1% Triton X-100, followed by 4×40 ml PBS. To cleave the p38 kinase from the GST-p38 fusion protein, the glutathione-sepharose resin was resuspended in 6 ml PBS containing 250 units thrombin protease (Pharmacia, specific activity>7500 units/mg) and mixed gently for 4 hours at room temperature. The glutathione-sepharose resin was removed by centrifugation (600×g, 5 min) and washed 2×6 ml with PBS. The PBS wash fractions and digest supernatant containing p38 kinase protein were pooled and adjusted to 0.3 mM PMSF.
Mono O Anion Exchange Chromatography:
The thrombin-cleaved p38 kinase was further purified by FPLC-anion exchange chromatography.
With `O=S(=O)(NCc1[nH]nc(-c2ccc(F)cc2)c1-c1ccncc1)c1cccc2cccnc12` [Example B-0116] the “P38 alpha kinase % inhib @ conc.” value was 73.0% @.
In the case of `O=S(=O)(NCc1[nH]nc(-c2ccc(F)cc2)c1-c1ccncc1)c1cc(Br)c(Br)s1` [Example B-0136], the “P38 alpha kinase % inhib @ conc.” value is reported as 77.0% @.

Same assay, conditions: @ 1.0 uM; read-out: P38 alpha kinase % inhib @ conc.
In the case of `COc1ccc(OC)c(CC(=O)NCc2[nH]nc(-c3ccc(F)cc3)c2-c2ccncc2)c1` [Example B-0013], the inhibition at 1 µM is reported as 70%.
In the case of `CCCCC(=O)NCc1[nH]nc(-c2ccc(F)cc2)c1-c1ccncc1` [Example B-0014], the inhibition at 1 µM is reported as 79%.
With `CCCCCCC(=O)NCc1[nH]nc(-c2ccc(F)cc2)c1-c1ccncc1` [Example B-0015] the inhibition at 1 µM was 82%.
`O=C(NCc1[nH]nc(-c2ccc(F)cc2)c1-c1ccncc1)c1ccc(I)cc1` [Example B-0017] was tested, and the inhibition at 1 µM was 56%.
With `O=C(NCc1[nH]nc(-c2ccc(F)cc2)c1-c1ccncc1)C(=O)c1c[nH]c2ccccc12` [Example B-0018] the inhibition at 1 µM was 60%.
Work on `O=C(NCc1[nH]nc(-c2ccc(F)cc2)c1-c1ccncc1)c1cc(Cl)cc(Cl)c1` [Example B-0020] yielded an inhibition at 1 µM of 73%.
`Cc1ccc(C(=O)NCc2[nH]nc(-c3ccc(F)cc3)c2-c2ccncc2)cc1` [Example B-0021] gave an inhibition at 1 µM of 68%.
`O=C(NCc1[nH]nc(-c2ccc(F)cc2)c1-c1ccncc1)c1ccc([N+](=O)[O-])cc1` [Example B-0022] showed an inhibition at 1 µM of 69%.
Compound `N#Cc1cccc(C(=O)NCc2[nH]nc(-c3ccc(F)cc3)c2-c2ccncc2)c1` [Example B-0023] has an inhibition at 1 µM of 90%.
`O=C(NCc1[nH]nc(-c2ccc(F)cc2)c1-c1ccncc1)c1ccccc1[N+](=O)[O-]` [Example B-0024] showed an inhibition at 1 µM of 94%.
For `O=C(NCc1[nH]nc(-c2ccc(F)cc2)c1-c1ccncc1)c1cc2ccccc2s1` [Example B-0029], the inhibition at 1 µM was 91%.
In the case of `CC(C)c1cc(C(C)C)c(C(=O)NCc2[nH]nc(-c3ccc(F)cc3)c2-c2ccncc2)c(C(C)C)c1` [Example B-0030], the inhibition at 1 µM is reported as 92%.
With `O=C(NCc1[nH]nc(-c2ccc(F)cc2)c1-c1ccncc1)C(c1ccccc1)c1ccccc1` [Example B-0032] the inhibition at 1 µM was 94%.
`COc1ccc(C(=O)NCc2[nH]nc(-c3ccc(F)cc3)c2-c2ccncc2)cc1` [Example B-0039] gave an inhibition at 1 µM of 89%.
In the case of `COc1cccc(CC(=O)NCc2[nH]nc(-c3ccc(F)cc3)c2-c2ccncc2)c1` [Example B-0040], the inhibition at 1 µM is reported as 93%.
`CCCCOc1ccc(C(=O)NCc2[nH]nc(-c3ccc(F)cc3)c2-c2ccncc2)cc1` [Example B-0041] gave an inhibition at 1 µM of 65%.
`CCC(Oc1ccccc1)C(=O)NCc1[nH]nc(-c2ccc(F)cc2)c1-c1ccncc1` (stereo not shown) [Example B-0047] was tested, and the inhibition at 1 µM was 94%.

Same assay, conditions: @ 10.0 uM
With `CCCC(=O)COC(=O)NCc1[nH]nc(-c2ccc(F)cc2)c1-c1ccncc1` [Example B-0177] the “P38 alpha kinase % inhib @ conc.” value was 70.0% @.

Same assay, conditions: in vitro P38-alpha kinase inhibition; read-out: P38 alpha kinase IC50
Compound `CC(NC(=O)NC(C)c1[nH]nc(-c2ccc(F)cc2)c1-c1ccncc1)c1ccccc1` (stereo not shown) [Example B-0414] has an IC50 of 2540 nM.
Compound `CCN(CC)C(=O)N[C@H](C)c1[nH]nc(-c2ccc(F)cc2)c1-c1ccncc1` [Example B-0420] has an IC50 of 830 nM.
`COc1ccc(NC(=O)N[C@H](C)c2[nH]nc(-c3ccc(F)cc3)c2-c2ccncc2)c(OC)c1` [Example B-0422] gave an IC50 of less than 100 nM.
Compound `C[C@@H](NS(=O)(=O)c1ccc(Br)cc1)c1[nH]nc(-c2ccc(F)cc2)c1-c1ccncc1` [Example B-0432] has an IC50 of less than 100 nM.
With `C[C@@H](NS(=O)(=O)c1ccc(Cl)cc1)c1[nH]nc(-c2ccc(F)cc2)c1-c1ccncc1` [Example B-0433] the IC50 was less than 100 nM.
Compound `C[C@@H](NS(=O)(=O)Cc1ccccc1[N+](=O)[O-])c1[nH]nc(-c2ccc(F)cc2)c1-c1ccncc1` [Example B-0442] has an IC50 of less than 100 nM.
In the case of `C[C@@H](NS(=O)(=O)c1cccc(Cl)c1Cl)c1[nH]nc(-c2ccc(F)cc2)c1-c1ccncc1` [Example B-0445], the IC50 is reported as less than 100 nM.
`C[C@@H](NS(=O)(=O)c1cccc(Br)c1)c1[nH]nc(-c2ccc(F)cc2)c1-c1ccncc1` [Example B-0455] was tested, and the IC50 was less than 100 nM.
`CCCCOc1ccc(S(=O)(=O)NC(C)c2[nH]nc(-c3ccc(F)cc3)c2-c2ccncc2)cc1` (stereo not shown) [Example B-0456] gave an IC50 of 1310 nM.
With `C[C@@H](NS(=O)(=O)c1cccc(Cl)c1)c1[nH]nc(-c2ccc(F)cc2)c1-c1ccncc1` [Example B-0462] the IC50 was less than 100 nM.
`C[C@@H](NS(=O)(=O)c1cc(Cl)cc(Cl)c1)c1[nH]nc(-c2ccc(F)cc2)c1-c1ccncc1` [Example B-0464] gave an IC50 of less than 100 nM.
For `C[C@@H](NS(=O)(=O)c1ccc(F)c(Cl)c1)c1[nH]nc(-c2ccc(F)cc2)c1-c1ccncc1` [Example B-0466], the IC50 was less than 100 nM.
For `Cc1cccc(Cl)c1S(=O)(=O)N[C@H](C)c1[nH]nc(-c2ccc(F)cc2)c1-c1ccncc1` [Example B-0467], the IC50 was less than 100 nM.
`CC(=O)OCC(=O)NC(C)c1[nH]nc(-c2ccc(F)cc2)c1-c1ccncc1` (stereo not shown) [Example B-0530] gave an IC50 of 5530 nM.
`CC(NC(=O)c1ccccc1I)c1[nH]nc(-c2ccc(F)cc2)c1-c1ccncc1` (stereo not shown) [Example B-0531] was tested, and the IC50 was 500 nM.
`CC(NC(=O)c1ccc(F)cc1)c1[nH]nc(-c2ccc(F)cc2)c1-c1ccncc1` (stereo not shown) [Example B-0533] showed an IC50 of 1230 nM.
`C=CCOC(=O)NC(C)c1[nH]nc(-c2ccc(F)cc2)c1-c1ccncc1` (stereo not shown) [Example B-0534] showed an IC50 of 410 nM.
`CC(NC(=O)C1CCC1)c1[nH]nc(-c2ccc(F)cc2)c1-c1ccncc1` (stereo not shown) [Example B-0537] was tested, and the IC50 was 3440 nM.
For `CC(NC(=O)C1CC1)c1[nH]nc(-c2ccc(F)cc2)c1-c1ccncc1` (stereo not shown) [Example B-0538], the IC50 was 1130 nM.
`CC(NC(=O)c1ccc(I)cc1)c1[nH]nc(-c2ccc(F)cc2)c1-c1ccncc1` (stereo not shown) [Example B-0540] showed an IC50 of 3620 nM.
Compound `CC(=O)OC(C)C(=O)NC(C)c1[nH]nc(-c2ccc(F)cc2)c1-c1ccncc1` (stereo not shown) [Example B-0542] has an IC50 of 1550 nM.
`COCC(=O)NC(C)c1[nH]nc(-c2ccc(F)cc2)c1-c1ccncc1` (stereo not shown) [Example B-0543] showed an IC50 of 1560 nM.
In the case of `COc1ccccc1C(=O)NC(C)c1[nH]nc(-c2ccc(F)cc2)c1-c1ccncc1` (stereo not shown) [Example B-0544], the IC50 is reported as 1120 nM.
In the case of `CC(NC(=O)c1ccccc1C(F)(F)F)c1[nH]nc(-c2ccc(F)cc2)c1-c1ccncc1` (stereo not shown) [Example B-0545], the IC50 is reported as 1060 nM.
`CC(NC(=O)C1CCCC1)c1[nH]nc(-c2ccc(F)cc2)c1-c1ccncc1` (stereo not shown) [Example B-0553] showed an IC50 of 1440 nM.
Work on `CC(NC(=O)c1cccnc1)c1[nH]nc(-c2ccc(F)cc2)c1-c1ccncc1` (stereo not shown) [Example B-0554] yielded an IC50 of 2580 nM.
Work on `CC(NC(=O)c1ccncc1)c1[nH]nc(-c2ccc(F)cc2)c1-c1ccncc1` (stereo not shown) [Example B-0555] yielded an IC50 of 1870 nM.
`CC(NC(=O)c1ccccn1)c1[nH]nc(-c2ccc(F)cc2)c1-c1ccncc1` (stereo not shown) [Example B-0556] gave an IC50 of 490 nM.

Same assay, conditions: in vitro P38-alpha kinase; read-out: P38 alpha kinase IC50
`O=S(=O)(NCc1[nH]nc(-c2ccc(F)cc2)c1-c1ccncc1)c1ccc(Br)cc1` [Example B-0224] showed an IC50 of less than 100 nM.
Work on `O=C(O)c1ccccc1S(=O)(=O)NCc1[nH]nc(-c2ccc(F)cc2)c1-c1ccncc1` [Example B-0228] yielded an IC50 of 150 nM.
`COc1ccc(Br)cc1S(=O)(=O)NCc1[nH]nc(-c2ccc(F)cc2)c1-c1ccncc1` [Example B-0249] gave an IC50 of less than 100 nM.
`O=S(=O)(NCc1[nH]nc(-c2ccc(F)cc2)c1-c1ccncc1)c1ccc(-c2ccccc2)cc1` [Example B-0256] gave an IC50 of less than 100 nM.
In the case of `O=C(NCc1[nH]nc(-c2ccc(F)cc2)c1-c1ccncc1)c1c(Cl)cccc1Cl` [Example B-0294], the IC50 is reported as 680 nM.
`Cc1noc(C)c1C(=O)NCc1[nH]nc(-c2ccc(F)cc2)c1-c1ccncc1` [Example B-0304] showed an IC50 of 550 nM.
`C[C@@H](NS(=O)(=O)/C=C/c1ccccc1)c1[nH]nc(-c2ccc(F)cc2)c1-c1ccncc1` [Example B-0388] was tested, and the IC50 was less than 100 nM.
